Molecules are shown by their SMILES. Read-outs that look alike come from different tables or passages of the source.

Experiment [1] addresses recombinant human Mcl-1 (residues 171-327) / Bim interaction (Homo sapiens (Human), UniProt Q07820). The experiment is described as follows: biochemical. The format is binding. To be noted: read-out: Mcl-1 HTRF IC50.
In experiment [2] the test system is human multiple myeloma cell line, OPM-2. The experiment can be described thus: Cell viability assay (OPM-2 10 FBS), CellTiter-Glo. Format: cell-based. The gist of the method: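 IC50 values come from 4-parameter logistic fits of luminescence signals reflecting cell viability. Treatment lasted 16 h at 37 °C in complete medium with 10% FBS, starting from 3000 cells/well.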
A general note: In ATP-based viability assays light output follows the ATP content of the culture.

Where [3] appears, read: 0.1 nM Mcl-1(171-327), 0.05 nM biotin-Bim (51-76).
Setting [4] is: Homo sapiens, OPM-2, 16 h, read-out: OPM-2 10% FBS IC50 IP, OPM-2 cells, 10% FBS, 16 h incubation.
[5] abbreviates: TR-FRET, Mcl-1(171-327) / biotin-Bim (51-76).
The mark [6] stands for this setting: Homo sapiens, OPM-2, 16 h, read-out: OPM-2 10% FBS IC50 IP, OPM-2 cells, 10% FBS, 16 h, CellTiter-Glo.
The mark [7] stands for this setting: read-out: OPM-2 10% FBS IC50 IP, OPM-2 cells, 10% FBS, 16 h, CellTiter-Glo.
The mark [8] stands for this setting: read-out: OPM-2 10% FBS IC50 IP, OPM-2 cells, 10% FBS, 16 h incubation.

Chain of recombinant human Mcl-1 (residues 171-327) / Bim interaction (Q07820 171-327): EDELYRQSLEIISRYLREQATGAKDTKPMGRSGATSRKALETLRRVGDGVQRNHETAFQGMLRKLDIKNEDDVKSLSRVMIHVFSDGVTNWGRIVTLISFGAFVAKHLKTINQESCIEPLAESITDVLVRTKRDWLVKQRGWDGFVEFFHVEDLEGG

What is called IC50 is the point on the concentration scale where inhibition reaches its midpoint. As to `CO[C@]1(CN2CC3(C2)CS(=O)(=O)C3)/C=C/C[C@H](C)[C@@H](C)S(=O)(=O)NC(=O)c2ccc3c(c2)N(C[C@@H]2CC[C@H]21)C[C@@]1(CCCc2cc(Cl)ccc21)CO3` [Example 224, (1S,3′R,6′R,7′R,8′E,11′S,12′R)-6-chloro-7′-((2,2-dioxido-2-thia-6-azaspiro[3.3]hept-6-yl)methyl)-7′-methoxy-11′,12′-dimethyl-3,4-dihydro-2H,15′H-spiro[naphthalene-1,22′-[20]oxa[13]thia[1,14]diazatetracyclo [14.7.2.0~3,6~.0~19,24~]pentacosa[8,16,18,24]tetraen]-15′-one 13′,13′-dioxide], the IC50 in experiment [1] (setting [3]) was 0.127 nM; in experiment [2] (setting [4]) it was 157 nM.

`CO[C@@]1(c2nccn2C)/C=C/C[C@H](C)[C@@H](C)S(=O)(=O)NC(=O)c2ccc3c(c2)N(C[C@@H]2CC[C@H]21)C[C@@]1(CCCc2cc(Cl)ccc21)CO3` (single isomer, unassigned) [Example 100556]: the IC50 stood at 0.113 nM in experiment [1] (setting [5]) and 734 nM in experiment [2] (setting [6]).

For the compound `CO[C@]1(c2ncccn2)/C=C/C[C@H](C)[C@@H](C)S(=O)(=O)NC(=O)c2ccc3c(c2)N(C[C@@H]2CC[C@H]21)C[C@@]1(CCCc2cc(Cl)ccc21)CO3` [Example 100278, (1S,3′R,6′R,7′R,8′E,11′S,12′R)-6-chloro-7′-methoxy-11′,12′-dimethyl-7′-(2-pyrimidinyl)-3,4-dihydro-2H,15′H-spiro[naphthalene-1,22′-[20]oxa[13]thia[1,14]diazatetracyclo [14.7.2.0~3,6~.0~19,24~]pentacosa[8,16,18,24]tetraen]-15′-one 13′,13′-dioxide], the concentration for half-maximal inhibition (IC50) in experiment [1] (setting [5]) was 0.458 nM; in experiment [2] (setting [6]), 333 nM.

`C[C@@H]1[C@@H](C)CCC[C@@]2(C[C@H]2C(=O)N2CCN3CCOC[C@H]3C2)[C@@H]2CC[C@H]2CN2C[C@@]3(CCCc4cc(Cl)ccc43)COc3ccc(cc32)C(=O)NS1(=O)=O` [Example 100304, (1R,2R,3′R,6′R,11′S,12′R,22′S)-6″-chloro-2-((9aR)-hexahydropyrazino[2,1-c][1,4]oxazin-8(1H)-ylcarbonyl)-11′,12′-dimethyl-3″,4″-dihydro-2″H,15′H-dispiro[cyclopropane-1,7′-[20]oxa[13]thia[1,14]diazatetracyclo [14.7.2.0~3,6~.0~19,24~]pentacosa[16,18,24]triene-22′,1″-naphthalen]-15′-one 13′,13′-dioxide]: the IC50 in experiment [1] (setting [5]) came out at 0.311 nM; in experiment [2] (setting [7]), 464 nM.

As to `CO[C@]1(CN2CCN3CCC(F)(F)C[C@@H]3C2)/C=C/C[C@H](C)[C@@H](C)S(=O)(=O)NC(=O)c2ccc3c(c2)N(C[C@@H]2CC[C@H]21)C[C@@]1(CCCc2cc(Cl)ccc21)CO3` [Example 292], the IC50 in experiment [1] (setting [3]) turned out to be 0.356 nM; in experiment [2] (setting [8]) it was 399 nM.

Regarding `CO[C@]1(CN2CCc3ncncc3C2)/C=C/C[C@H](C)[C@@H](C)S(=O)(=O)NC(=O)c2ccc3c(c2)N(C[C@@H]2CC[C@H]21)C[C@@]1(CCCc2cc(Cl)ccc21)CO3` [Example 222, (1S,3′R,6′R,7′R,8′E,11′S,12′R)-6-chloro-7′-(7,8-dihydropyrido[4,3-d]pyrimidin-6(5H)-ylmethyl)-7′-methoxy-11′,12′-dimethyl-3,4-dihydro-2H,15′H-spiro[naphthalene-1,22′-[20]oxa[13]thia[1,14]diazatetracyclo [14.7.2.0~3,6~.0~19,24~]pentacosa[8,16,18,24]tetraen]-15′-one 13′,13′-dioxide], the IC50 worked out at 0.08 nM in experiment [1] (setting [3]) and 118 nM in experiment [2] (setting [4]).

As to `CO[C@@]1(CN2CCC=C(F)C2)/C=C/C[C@H](C)[C@@H](C)S(=O)(=O)NC(=O)c2ccc3c(c2)N(C[C@@H]2CC[C@H]21)C[C@@]1(CCCc2cc(Cl)ccc21)CO3` [Example 68, (1S,3′R,6′R,7′S,8′E,11′S,12′R)-6-chloro-7′-((5-fluoro-3,6-dihydro-1(2H)-pyridinyl)methyl)-7′-methoxy-11′,12′-dimethyl-3,4-dihydro-2H,15′H-spiro[naphthalene-1,22′-[20]oxa[13]thia[1,14]diazatetracyclo [14.7.2.0~3,6~.0~19,24~]pentacosa[8,16,18,24]tetraen]-15′-one 13′,13′-dioxide], the IC50 in experiment [1] (setting [3]) was determined as 0.397 nM; in experiment [2] (setting [4]), 1520 nM.

For `C[C@@H]1[C@@H](C)C/C=C/[C@](O)(CC(=O)N(C)c2ccccc2)[C@@H]2CC[C@H]2CN2C[C@@]3(CCCc4cc(Cl)ccc43)COc3ccc(cc32)C(=O)NS1(=O)=O` (single isomer, unassigned) [Example 100248], the IC50 in experiment [1] (setting [5]) was 11.1 nM; in experiment [2] (setting [6]) it was 6680 nM.

As to `CO[C@]1(c2nccn2C)/C=C/C[C@H](C)[C@@H](C)S(=O)(=O)NC(=O)c2ccc3c(c2)N(C[C@@H]2CC[C@H]21)C[C@@]1(CCCc2cc(Cl)ccc21)CO3` (single isomer, unassigned) [Example 100553], the IC50 in experiment [1] (setting [5]) is 1.04 nM; in experiment [2] (setting [6]) it was 2790 nM.

Regarding `C[C@@H]1[C@@H](C)CCC[C@@](O)(Cc2ccccn2)[C@@H]2CC[C@H]2CN2C[C@@]3(CCCc4cc(Cl)ccc43)COc3ccc(cc32)C(=O)NS1(=O)=O` [Example 100104, (1S,3′R,6′R,7′R,11′S,12′R)-6-chloro-7′-hydroxy-11′,12′-dimethyl-7′-(2-pyridinylmethyl)-3,4-dihydro-2H,15′H-spiro[naphthalene-1,22′-[20]oxa[13]thia[1,14]diazatetracyclo [14.7.2.0~3,6~.0~19,24~]pentacosa[16,18,24]trien]-15′-one 13′,13′-dioxide], the half-inhibitory concentration (IC50) in experiment [1] (setting [5]) is 0.599 nM; in experiment [2] (setting [7]), 250 nM.

In the case of `CO[C@@]1(CC(=O)N2CCN(C)CC2)/C=C/C[C@H](C)[C@@H](C)S(=O)(=O)NC(=O)c2ccc3c(c2)N(C[C@@H]2CC[C@H]21)C[C@@]1(CCCc2cc(Cl)ccc21)CO3` [Example 100376, (1S,3′R,6′R,7′S,8′E,11′S,12′R)-6-chloro-7′-methoxy-11′,12′-dimethyl-7′-(2-(4-methyl-1-piperazinyl)-2-oxoethyl)-3,4-dihydro-2H,15′H-spiro[naphthalene-1,22′-[20]oxa[13]thia[1,14]diazatetracyclo [14.7.2.0~3,6~.0~19,24~]pentacosa[8,16,18,24]tetraen]-15′-one 13′,13′-dioxide], the IC50 in experiment [1] (setting [5]) was determined as 0.15 nM; in experiment [2] (setting [6]), 362 nM.

As to `C=CC(=O)N1CCN2CCN(C[C@]3(OC)/C=C/C[C@H](C)[C@@H](C)S(=O)(=O)NC(=O)c4ccc5c(c4)N(C[C@@H]4CC[C@H]43)C[C@@]3(CCCc4cc(Cl)ccc43)CO5)C[C@H]2C1` [Example 234], the IC50 amounted to 0.163 nM in experiment [1] (setting [3]) and 71 nM in experiment [2] (setting [8]).

For the compound `CO[C@]1(CCN2CCN(C)C(=O)C2)/C=C/C[C@H](C)[C@@H](C)S(=O)(=O)NC(=O)c2ccc3c(c2)N(C[C@@H]2CC[C@H]21)C[C@@]1(CCCc2cc(Cl)ccc21)CO3` [Example 100415, (1S,3′R,6′R,7′R,8′E,11′S,12′R)-6-chloro-7′-methoxy-11′,12′-dimethyl-7′-(2-(4-methyl-3-oxo-1-piperazinyl)ethyl)-3,4-dihydro-2H,15′H-spiro[naphthalene-1,22′-[20]oxa[13]thia[1,14]diazatetracyclo [14.7.2.0~3,6~.0~19,24~]pentacosa[8,16,18,24]tetraen]-15′-one 13′,13′-dioxide], the IC50 in experiment [1] (setting [5]) came out at 1.95 nM; in experiment [2] (setting [6]) it was 2280 nM.

For `CO[C@@]1(CN2CC3(COC3)C2)/C=C/C[C@H](C)[C@@H](C)S(=O)(=O)NC(=O)c2ccc3c(c2)N(C[C@@H]2CC[C@H]21)C[C@@]1(CCCc2cc(Cl)ccc21)CO3` [Example 203, (1S,3′R,6′R,7′S,8′E,11′S,12′R)-6-chloro-7′-methoxy-11′,12′-dimethyl-7′-(2-oxa-6-azaspiro[3.3]hept-6-ylmethyl)-3,4-dihydro-2H,15′H-spiro[naphthalene-1,22′-[20]oxa[13]thia[1,14]diazatetracyclo [14.7.2.0~3,6~.0~19,24~]pentacosa[8,16,18,24]tetraen]-15′-one 13′,13′-dioxide], the figures for the half-maximal inhibitory concentration (IC50) in experiment [1] (setting [3]) and in experiment [2] (setting [4]) were 0.113 nM and 112 nM, respectively.

As for `C[C@@H]1[C@@H](C)C/C=C/[C@@](O)(C2CC2)[C@@H]2CC[C@H]2CN2C[C@@]3(CCCc4cc(Cl)ccc43)COc3ccc(cc32)C(=O)NS1(=O)=O` [Example 100214, (1S,3′R,6′R,7′S,8′E,11′S,12′R)-6-chloro-7′-cyclopropyl-7′-hydroxy-11′,12′-dimethyl-3,4-dihydro-2H,15′H-spiro[naphthalene-1,22′-[20]oxa[13]thia[1,14]diazatetracyclo [14.7.2.0~3,6~.0~19,24~]pentacosa[8,16,18,24]tetraen]-15′-one 13′,13′-dioxide], the IC50 in experiment [1] (setting [5]) turned out to be 0.143 nM; in experiment [2] (setting [6]) it was 95 nM.

For `CO[C@]1(CN2CCN3CCC(F)(F)C[C@@H]3C2)/C=C/C[C@H](C)[C@@H](C)S(=O)(=O)NC(=O)c2ccc3c(c2)N(C[C@@H]2CC[C@H]21)C[C@@]1(CCCc2cc(Cl)ccc21)CO3` (single isomer, unassigned) [Example 298], the IC50 in experiment [1] (setting [3]) was found to be 0.279 nM; in experiment [2] (setting [8]), 262 nM.

Regarding `CO[C@@]1(C[C@@H](O)C2CC2)/C=C/C[C@H](C)[C@@H](C)S(=O)(=O)NC(=O)c2ccc3c(c2)N(C[C@@H]2CC[C@H]21)C[C@@]1(CCCc2cc(Cl)ccc21)CO3` (single isomer, unassigned) [Example 100460], the figures for the IC50 in experiment [1] (setting [5]) and in experiment [2] (setting [6]) were 0.095 nM and 433 nM, respectively.
